{"source": "patent US20220257595A1", "about": "“MACITENTAN FOR USE IN TREATING PORTOPULMONARY HYPERTENSION” (ACTELION PHARMACEUTICALS LTD, priority 2019, published 2022)", "test_system": "patients with PoPH", "experiment": "PORTICO: WHO functional class", "type": "in vivo, human", "method": "(iii) WHO functional class: WHO FC was evaluated at Screening, Baseline (Visit 2/Randomization), and then every visit until EOT-DB or EOT-OL, whichever came last.\nHandling of missing data: For change from baseline to Weeks 4, 8 and 12 in 6MWD and WHO FC, the last available value (including baseline) was carried forward unless the patient died before, or on Day 42, 70, 98 (the upper limit treatment days of Weeks 4, 8 and 12 windows, respectively), in which case the following rules considering worst case were used to replace all the missing values from the week after death up to Week 12: • For 6MWD, worst fixed value was set to 0, • For WHO FC, worst fixed value was set to class IV, • For change from baseline to Week 12 in NT-proBNP, the same imputation rule as for PVR was applied as described herein.\nStatistical analysis: The change from baseline to Week 12 in mRAP, mPAP, cardiac index, TPR and SVO2 were analyzed on the FAS (with imputation) using an ANCOVA with factors for treatment group, background PAH-specific therapy at baseline (Yes/No as per IXRS, randomization stratification factor), region (Europe/North America/Latin America as per IXRS, randomization stratification factor) and a covariate for baseline corresponding variable. Other RHC variables are listed only. WHO FC is summarized on the FAS (with imputation) by time point and treatment group using frequency tables. Changes from baseline in WHO FC were dichotomized as worsening (i.e., change >0) versus no change or improvement (i.e., change ≤0). Worsening was analyzed using a logistic regression model (exact) with covariates for treatment group, background PAH-specific therapy at baseline (Yes/No as per IXRS, randomization stratification factor) and region (Europe/North America/Latin America as per IXRS, randomization stratification factor). 6MWD is summarized on the FAS (with imputation) by time point and treatment group using descriptive statistics. Change from baseline to each time point is summarized similarly. Change from baseline in 6MWD (up to Week 12) was analyzed using a mixed-effect model repeated measure (MMRM) with factors for treatment group, time point, treatment by time interaction, background PAH-specific therapy at baseline (Yes/No as per IXRS, randomization stratification factor) and region (Europe/North America/Latin America as per IXRS, randomization stratification factor), and covariates for baseline 6MWD and WHO FC. An unstructured covariance matrix was used to account for the correlation between repeated measurements from the same patient. NT-proBNP is summarized on the FAS (with imputation) by time point and treatment group using descriptive statistics as well as geometric means and CVs. The ratio of Week 12 to baseline NT-proBNP is summarized similarly. The ratio versus baseline in NT-proBNP was log-transformed and analyzed using an ANCOVA with covariates for treatment group, background PAH-specific therapy at baseline (Yes/No as per IXRS, randomization stratification factor), region (Europe/North America/Latin America as per IXRS, randomization stratification factor) and baseline log NT-proBNP.\nMacitentan treatment period: Changes from macitentan baseline to each time point in WHO FC, 6MWD, NT-pro BNP and Borg dyspnea index (related to the macitentan treatment period) are summarized for the MTS using descriptive statistics."}
{"compound": "CCCNS(=O)(=O)Nc1ncnc(OCCOc2ncc(Br)cn2)c1-c1ccc(Br)cc1", "note": "[macitentan, N-[5-(4-Bromophenyl)-6-[2-[(5-bromo-2-pyrimidinyl)oxy]ethoxy]-4-pyrimidinyl]-N′-propylsulfamide]", "values": [{"measurement": "WHO FC Class I at Week 12, total", "setting": "FAS with imputation, N=43", "value": "3 (7.0) n (%)"}, {"measurement": "WHO FC Class II at Week 12, total", "setting": "FAS with imputation, N=43", "value": "27 (62.8) n (%)"}, {"measurement": "WHO FC Class III at Week 12, total", "setting": "FAS with imputation, N=43", "value": "13 (30.2) n (%)"}, {"measurement": "WHO FC Class IV at Week 12, total", "setting": "FAS with imputation, N=43", "value": "0 n (%)"}, {"measurement": "WHO FC Improved, baseline to Week 12", "setting": "FAS with imputation, N=43", "value": "9 (20.9) n (%)"}, {"measurement": "WHO FC Not Worsened, baseline to Week 12", "setting": "FAS with imputation, N=43", "value": "37 (86.0) n (%)"}, {"measurement": "WHO FC Unchanged, baseline to Week 12", "setting": "FAS with imputation, N=43", "value": "28 (65.1) n (%)"}, {"measurement": "WHO FC Worsened, baseline to Week 12", "setting": "FAS with imputation, N=43", "value": "6 (14.0) n (%)"}, {"measurement": "WHO FC shift: baseline Class I to Week 12 Class I", "setting": "FAS with imputation, N=43", "value": "1 (2.3) n (%)"}, {"measurement": "WHO FC shift: baseline Class I to Week 12 Class II", "setting": "FAS with imputation, N=43", "value": "0 n (%)"}, {"measurement": "WHO FC shift: baseline Class I to Week 12 Class III", "setting": "FAS with imputation, N=43", "value": "0 n (%)"}, {"measurement": "WHO FC shift: baseline Class I to Week 12 Class IV", "setting": "FAS with imputation, N=43", "value": "0 n (%)"}, {"measurement": "WHO FC shift: baseline Class II to Week 12 Class I", "setting": "FAS with imputation, N=43", "value": "1 (2.3) n (%)"}, {"measurement": "WHO FC shift: baseline Class II to Week 12 Class II", "setting": "FAS with imputation, N=43", "value": "20 (46.5) n (%)"}, {"measurement": "WHO FC shift: baseline Class II to Week 12 Class III", "setting": "FAS with imputation, N=43", "value": "6 (14.0) n (%)"}, {"measurement": "WHO FC shift: baseline Class II to Week 12 Class IV", "setting": "FAS with imputation, N=43", "value": "0 n (%)"}, {"measurement": "WHO FC shift: baseline Class III to Week 12 Class I", "setting": "FAS with imputation, N=43", "value": "1 (2.3) n (%)"}, {"measurement": "WHO FC shift: baseline Class III to Week 12 Class II", "setting": "FAS with imputation, N=43", "value": "7 (16.3) n (%)"}, {"measurement": "WHO FC shift: baseline Class III to Week 12 Class III", "setting": "FAS with imputation, N=43", "value": "7 (16.3) n (%)"}, {"measurement": "WHO FC shift: baseline Class III to Week 12 Class IV", "setting": "FAS with imputation, N=43", "value": "0 n (%)"}, {"measurement": "Patients with no change in WHO FC at Week 12", "setting": "FAS, macitentan group", "value": 65.1, "unit": "%"}, {"measurement": "Patients with worsening in WHO FC at Week 12", "setting": "FAS, macitentan group, 6 patients (4 imputed)", "value": 14.0, "unit": "%"}, {"measurement": "Patients with improvement in WHO FC at Week 12", "setting": "FAS, macitentan group, 9 patients", "value": 20.9, "unit": "%"}, {"measurement": "Patients with worsening in WHO FC at Week 24", "setting": "MTS without imputation, macitentan in both periods, 2/34", "value": 5.9, "unit": "%"}, {"measurement": "Patients with no change in WHO FC at Week 24", "setting": "MTS without imputation, macitentan in both periods, 21/34", "value": 61.8, "unit": "%"}, {"measurement": "Patients with worsening in WHO FC at Week 12 after macitentan initiation in OL period", "setting": "MTS without imputation, vs macitentan baseline, 3/35", "value": 8.6, "unit": "%"}, {"measurement": "Patients with no change in WHO FC at Week 12 after macitentan initiation in OL period", "setting": "MTS without imputation, vs macitentan baseline, 24/35", "value": 68.6, "unit": "%"}]}
